Source: patent US20080194585A1, “Fungicidal Pyrazine Derivatives” (priority 2005, published 2008)
Marks after values point to notes of the source that are not given here.

Tests used:
[1] = tested on: Colletotrichum orbiculare; test: Test B: cucumber Colletotrichum anthracnose, preventive spray on cucumber seedlings
Sclerotinia sclerotiorum = test: Test C: cucumber white mold, preventive spray on cucumber seedlings
Pythium aphanidermatum = test: Test A: bluegrass pythium blight, preventive spray on bluegrass seedlings
[2] = tested on: Puccinia recondita f. sp. tritici; test: Test K: wheat leaf rust, preventive spray on wheat seedlings
Plasmopara viticola = test: Test D: grape downy mildew, spray after inoculation of grape seedlings; type: in vivo
From the text: Upon removal, disease ratings were made. […] A dash (-) indicates no test results.

Septoria tritici = test: Test J: wheat leaf blotch, preventive spray on wheat seedlings; type: in vivo
From the text: A dash (-) indicates no test results.

Septoria nodorum = test: Test H: wheat glum blotch, preventive spray on wheat seedlings
Protocol: (the causal agent of wheat glum blotch) and incubated in a saturated atmosphere at 20° C. for 48 h, and then moved to a growth chamber at 22° C. for 5 days, after which disease ratings were made.

Botrytis cinerea = test: Test E: tomato botrytis, preventive spray on tomato seedlings
fusarium graminearium = test: Test I: wheat head scab, preventive spray on wheat seedlings
Protocol: (the causal agent of wheat head scab) and incubated in a saturated atmosphere at 20° C. for 72 h, and then moved to a growth chamber at 22° C. for 5 days, after which disease ratings were made.

Phytophthora infestans = test: whole plant or invertebrate; type: in vivo
[3] = tested on: Erysiphe graminis f. sp. tritici; test: Test L: wheat powdery mildew, preventive spray on wheat seedlings
Rhizoctonia oryzae = test: Test G: turf brown patch, preventive spray on creeping bent grass seedlings
Protocol: (the causal agent of turf brown patch) and incubated in a saturated atmosphere at 27° C. for 24 h, and then moved to a growth chamber at 27° C. for 5 days, after which disease ratings were made.

[4] = 200 ppm, 100 = 100% disease control, 0 = no control
[5] = 40 ppm (marked *), 100 = 100% disease control, 0 = no control

SMILES | Test B disease control rating [1, 4] | Test C disease control rating (Sclerotinia sclerotiorum; [4]) | Test A disease control rating (Pythium aphanidermatum; [4]) | Test K disease control rating [2, 4] | Test D disease control rating (Plasmopara viticola; [4]) | Test J disease control rating (Septoria tritici; [4]) | Test H disease control rating (Septoria nodorum; [4]) | Test E disease control rating (Botrytis cinerea; [4]) | Test I disease control rating (fusarium graminearium; [4]) | Test F disease control rating (Phytophthora infestans; [4]) | Test L disease control rating [3, 4] | Test G disease control rating (Rhizoctonia oryzae; [4]) | Test C disease control rating (Sclerotinia sclerotiorum; 200 ppm) | Test A disease control rating (Pythium aphanidermatum; 200 ppm) | Test D disease control rating (Plasmopara viticola; 200 ppm) | Test J disease control rating (Septoria tritici; 40 ppm (*)) | Test I disease control rating (fusarium graminearium; 200 ppm) | Test F disease control rating (Phytophthora infestans; 200 ppm) | Test B disease control rating ([1]; 40 ppm (*)) | Test K disease control rating ([2]; 40 ppm (*)) | further results
Cc1ccn(-c2nc(Cl)c(C(C)C)n(CC(C)C)c2=O)n1 [compound 289] | 0% | 0% | 0% | 100% | 0% | 96% | 0% | 100% | 0% | 57% | 79% | 95% | – | – | – | – | – | – | – | – | –
CC(C)Cn1c(-c2cccc(F)c2F)c(Cl)nc(-n2cccn2)c1=O [compound 50] | – | – | – | – | – | – | – | – | – | – | – | – | 98% | 0% | 0% | 100* % | 0% | 0% | – | – | Test B disease control rating ([1]; 200 ppm): 0%; Test K disease control rating ([2]; 200 ppm): 100%; Test H disease control rating (Septoria nodorum; 200 ppm): 100%; Test E disease control rating (Botrytis cinerea; 200 ppm): 100%; Test L disease control rating ([3]; 200 ppm): 94%; Test G disease control rating (Rhizoctonia oryzae; 200 ppm): 95%
CCC(C)Cn1c(-c2c(F)cccc2F)c(Cl)nc(-n2cnc(C#N)c2C#N)c1=O (stereo not drawn) [compound 67] | – | – | – | – | – | – | – | – | – | – | – | – | 0% | 0% | 0% | – | 0% | 0% | 0* % | 0* % | Test J disease control rating (Septoria tritici; 200 ppm): 24%; Test H disease control rating (Septoria nodorum; 40 ppm (*)): 0* %; Test E disease control rating (Botrytis cinerea; 40 ppm (*)): 0* %; Test L disease control rating ([3]; 40 ppm (*)): 0* %; Test G disease control rating (Rhizoctonia oryzae; 40 ppm (*)): 0* %
O=c1c(-n2cncn2)nc(Cl)c(-c2c(F)cccc2F)n1CCCl [compound 125] | – | – | – | – | – | – | – | – | – | – | – | – | – | – | – | 71* % | – | – | 0* % | 55* % | Test C disease control rating (Sclerotinia sclerotiorum; 40 ppm (*)): 0* %; Test A disease control rating (Pythium aphanidermatum; 40 ppm (*)): 0* %; Test D disease control rating (Plasmopara viticola; 40 ppm (*)): 0* %; Test H disease control rating (Septoria nodorum; 40 ppm (*)): 0* %; Test E disease control rating (Botrytis cinerea; 40 ppm (*)): 0* %; Test I disease control rating (fusarium graminearium; 40 ppm (*)): 0* %; Test F disease control rating (Phytophthora infestans; 40 ppm (*)): 0* %; Test L disease control rating ([3]; 40 ppm (*)): 0* %; Test G disease control rating (Rhizoctonia oryzae; 40 ppm (*)): 0* %
CC[C@H](C)Cn1c(-c2ccc(F)cc2Cl)c(Br)nc(N2CCC=N2)c1=O [compound 283] | – | – | – | – | – | – | – | – | – | – | – | – | – | – | – | – | – | – | – | – | Test B disease control rating [1, 5]: 94* %; Test C disease control rating (Sclerotinia sclerotiorum; [5]): 0* %; Test A disease control rating (Pythium aphanidermatum; [5]): 0* %; Test K disease control rating [2, 5]: 96* %; Test D disease control rating (Plasmopara viticola; [5]): 0* %; Test J disease control rating (Septoria tritici; [5]): 100* %; Test H disease control rating (Septoria nodorum; [5]): 0* %; Test E disease control rating (Botrytis cinerea; [5]): 98* %; Test I disease control rating (fusarium graminearium; [5]): 0* %; Test F disease control rating (Phytophthora infestans; [5]): 47* %; Test L disease control rating [3, 5]: 97* %; Test G disease control rating (Rhizoctonia oryzae; [5]): 0* %
CC(C)Cn1c(C2CCCCC2)c(Cl)nc(-n2cccn2)c1=O [compound 291] | 0% | 0% | 0% | 88% | 33% | 100% | 0% | 97% | 0% | 0% | 71% | 0% | – | – | – | – | – | – | – | – | –
O=c1c(-n2cccn2)nc(Cl)c(-c2c(F)cccc2F)n1Cc1ccc(F)cc1 [compound 272] | – | – | – | – | – | – | – | – | – | – | – | – | – | – | – | – | – | – | – | – | Test B disease control rating [1, 5]: 95* %; Test C disease control rating (Sclerotinia sclerotiorum; [5]): 44* %; Test A disease control rating (Pythium aphanidermatum; [5]): 0* %; Test K disease control rating [2, 5]: 100* %; Test D disease control rating (Plasmopara viticola; [5]): 57* %; Test J disease control rating (Septoria tritici; [5]): 100* %; Test H disease control rating (Septoria nodorum; [5]): 99* %; Test E disease control rating (Botrytis cinerea; [5]): 100* %; Test I disease control rating (fusarium graminearium; [5]): 0* %; Test F disease control rating (Phytophthora infestans; [5]): 0* %; Test L disease control rating [3, 5]: 100* %; Test G disease control rating (Rhizoctonia oryzae; [5]): 59* %
CC(C)Cn1c(Cc2ccccc2)c(Cl)nc(-n2cccn2)c1=O [compound 130] | – | – | – | – | – | – | – | – | – | – | – | – | – | – | – | 16* % | – | – | 0* % | 0* % | Test C disease control rating (Sclerotinia sclerotiorum; 40 ppm (*)): 0* %; Test A disease control rating (Pythium aphanidermatum; 40 ppm (*)): 0* %; Test D disease control rating (Plasmopara viticola; 40 ppm (*)): 0* %; Test H disease control rating (Septoria nodorum; 40 ppm (*)): 0* %; Test E disease control rating (Botrytis cinerea; 40 ppm (*)): 0* %; Test I disease control rating (fusarium graminearium; 40 ppm (*)): 0* %; Test F disease control rating (Phytophthora infestans; 40 ppm (*)): 0* %; Test L disease control rating ([3]; 40 ppm (*)): 0* %; Test G disease control rating (Rhizoctonia oryzae; 40 ppm (*)): 0* %
CCC(C)Cn1c(-c2ccc(F)cc2Cl)c(Cl)nc(-n2ccc(C(OC)OC)n2)c1=O (racemic) [compound 261] | 100% | 83% | 0% | 100% | 40% | 100% | 99% | 100% | 0% | 0% | 98% | 0% | – | – | – | – | – | – | – | – | –
CC(C)Cc1c(Cl)nc(-n2cccn2)c(=O)n1CC(C)C [compound 292] | 0% | 0% | 0% | 27% | 0% | 38% | 0% | 0% | 0% | 0% | 74% | 0% | – | – | – | – | – | – | – | – | –
CC(C)Cn1c(-c2ccc3c(c2)OCO3)c(Cl)nc(-n2cccn2)c1=O [compound 88] | – | – | – | – | – | – | – | – | – | – | – | – | 99% | 0% | 0% | – | 0% | 24% | – | – | Test B disease control rating ([1]; 200 ppm): 52%; Test K disease control rating ([2]; 200 ppm): 97%; Test J disease control rating (Septoria tritici; 200 ppm): 100%; Test H disease control rating (Septoria nodorum; 200 ppm): 99%; Test E disease control rating (Botrytis cinerea; 200 ppm): 100%; Test L disease control rating ([3]; 200 ppm): 0%; Test G disease control rating (Rhizoctonia oryzae; 200 ppm): 16%
COc1cc(OC)c(-c2c(Cl)nc(-n3cncn3)c(=O)n2CC(C)C)c(OC)c1 [compound 112] | – | – | – | – | – | – | – | – | – | – | – | – | 0% | 0% | 0% | 0* % | 57% | 0% | 0* % | 0* % | Test H disease control rating (Septoria nodorum; 40 ppm (*)): 0* %; Test E disease control rating (Botrytis cinerea; 40 ppm (*)): 0* %; Test L disease control rating ([3]; 40 ppm (*)): 0* %; Test G disease control rating (Rhizoctonia oryzae; 40 ppm (*)): 0* %
